This note sets out measurements from patent US20260226047A1, “BENZIMIDAZOLE AND AZA-BENZIMIDAZOLE BASED IL-17A MODULATORS AND USES THEREOF” (DICE ALPHA, INC., priority 2023, published 2026).

Structures are written as SMILES.

This test deals with T1, IL-17A/A (Homo sapiens, UniProt Q16552).
T1 construct: purchased Genscript Z03228
T1 sequence (Q16552 24-155): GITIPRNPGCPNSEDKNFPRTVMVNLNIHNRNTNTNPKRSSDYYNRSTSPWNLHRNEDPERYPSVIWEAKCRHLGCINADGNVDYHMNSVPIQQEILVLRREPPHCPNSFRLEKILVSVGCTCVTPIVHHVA
Put plainly: IL-17A/A HEK-Blue Cell Assay. The test is classed as cell-based. The conditions noted are these: IL-17A/A inhibition, HEK-Blue IL-17A reporter cell line, SEAP readout at A630, incubated for 20 hours. The protocol: Example 3: IL-17A/A HEK-Blue Cell Assay
The HEK-Blue IL-17A reporter cell line (Fisher #NC1408637) was used for cell-based IL-17A/A inhibition assays. Cells were grown and prepared for assays according to the manufacturer's instructions. This cell line consists of HEK 293 cells that were designed to expressed IL-17RA, IL-17RC, and the ActI adapter molecule, the combination of which, when stimulated by IL-17A/A activates a NFκB promoter and drives expression of a recombinant Secreted Alkaline Phosphatase (SEAP) gene protein. Media from the cells is then added to a development reagent (Quanti-Blue Substrate, Fisher #NC9711613), and read at A630.
Compounds were titrated in DMSO, with a top final compound concentration of 10 μM, 1 uM, or 0.3 μM, and added to the cells immediately before adding IL-17A/A (Genscript #Z03228). The cells, compound, and IL-17A/A were then incubated for 20 hours before media was removed for SEAP analysis. The resulting inhibition curve was then analyzed using Graphpad Prism 7.0, and IC50 values were determined using a 4-parameter nonlinear fit. DMSO was added to a universal final concentration of 0.1% to optimize background.
For the compound `CCn1nccc1C(=O)N[C@H](c1nc2nc(CC3CCNC3=O)ccc2[nH]1)C1CCC(F)(F)CC1` (some centres unmarked) [Compound 30], the IC50 was > 1 µM. Take `CCn1nccc1C(=O)N[C@H](c1nc2cc(C[C@@H]3CCNC3=O)cc(F)c2[nH]1)C(C1CC1)C1CC1` [Compound 31]: the half-inhibitory concentration (IC50) is > 1 µM.

In the case of `CCn1nccc1C(=O)N[C@H](c1nc2cc(CC3CC(C(F)(F)F)NC3=O)cc(F)c2[nH]1)C(C1CC1)C1CC1` (some centres unmarked) [Compound 41], the half-maximal inhibitory concentration (IC50) lay in the range of 0.1 to 1 µM.

Regarding `CCn1nccc1C(=O)N[C@H](c1nc2c(F)c(C[C@H]3CCNC3=O)ccc2[nH]1)C(C1CC1)C1CC1` (single isomer, unassigned) [Compound 1], the IC50 lay in the range of 0.1 to 1 µM. As for `O=C1N[C@H](C(F)(F)F)C[C@@H]1Cc1ccc2nc([C@@H](NC(=O)C3(F)CC3)C(C3CC3)C3CC3)[nH]c2c1` [Compound 69], the figure is 0.1 to 1 µM; as for `CCn1nccc1C(=O)N[C@H](c1nc2cc(C(C)C3CCNC3=O)ccc2[nH]1)C(C1CC1)C1CC1` (some centres unmarked) [Compound 22], > 1 µM.

For the compound `CC[C@@H](C1CCC1)[C@H](NC(=O)c1ccnn1CC)c1nc2ccc(C[C@H]3CCNC3=O)cc2[nH]1` [Compound 65], the IC50 lay in the range of 0.1 to 1 µM. The same measure for `CCn1nccc1C(=O)N[C@H](c1nc2cc(CC3CCNC3=O)ccc2[nH]1)C(C1CC1)C1CC1` (some centres unmarked) [Compound 15]: 0.1 to 1 µM; for `CCn1nccc1C(=O)N[C@H](c1nc2cc(CC3CCC(C(F)(F)F)NC3=O)ccc2[nH]1)C(C1CC1)C1CC1` (some centres unmarked) [Compound 46]: > 1 µM; for `CCn1nccc1C(=O)N[C@H](c1nc2ccc(CC3(C)CCNC3=O)cc2[nH]1)C(C1CC1)C1CC1` (some centres unmarked) [Compound 20]: 0.1 to 1 µM. As for `CCn1nccc1C(=O)N[C@H](c1nc2cc(C[C@H]3C[C@@H](C(F)(F)F)NC3=O)cc(F)c2[nH]1)C(C1CC1)C1CC1` [Compound 34], the figure is < 0.1 µM. Turning to `CCn1nccc1C(=O)NC(c1nc2nc(CC3CCNC3=O)ccc2[nH]1)C1CCC(F)(F)CC1` (mixture of isomers) [Compound 9], the IC50 is > 1 µM. As for `CCn1nccc1C(=O)N[C@H](c1nc2ccc(C(C)C3CCCNC3=O)cc2[nH]1)C(C1CC1)C1CC1` (some centres unmarked) [Compound 85], the figure is > 1 µM; as for `CCn1nccc1C(=O)N[C@H](c1nc2ccc(C[C@H]3CC(F)(F)CNC3=O)cc2[nH]1)C(C1CC1)C1CC1` [Compound 74], < 0.1 µM.

On to `CCn1nccc1C(=O)N[C@H](c1nc2c(F)c(CC3CCNC3=O)ccc2[nH]1)C1CCC(F)(F)CC1` (some centres unmarked) [Compound 11], for which the half-maximal inhibitory concentration (IC50) was 0.1 to 1 µM. As to `CCn1nccc1C(=O)N[C@H](c1nc2cc(C[C@@H]3CCNC3=O)ccc2[nH]1)C(C1CC1)C1CC1` [Compound 27], the IC50 was > 1 µM.

Turning to `CC[C@@H](c1ccc(F)cc1)[C@H](NC(=O)c1ccnn1CC)c1nc2ccc(C[C@H]3CCNC3=O)cc2[nH]1` [Compound 63], the IC50 is > 1 µM.

As to `CCn1nccc1C(=O)N[C@H](c1nc2ccc(CC3C(=O)NCC3C(F)(F)F)cc2[nH]1)C(C1CC1)C1CC1` (some centres unmarked) [Compound 77], the half-maximal inhibitory concentration (IC50) was 0.1 to 1 µM. With `CCn1nccc1C(=O)N[C@H](c1nc2cc(C)c(CC3CCNC3=O)cc2[nH]1)C(C1CC1)C1CC1` (some centres unmarked) [Compound 26], the IC50 was > 1 µM.

Regarding `CCn1nccc1C(=O)N[C@H](c1nc2ccc(CC3CCCNC3=O)cc2[nH]1)[C@H]1CC[C@H](C(F)(F)F)CC1` (some centres unmarked) [Compound 88], the IC50 is > 1 µM. The same measure for `CCn1nccc1C(=O)N[C@H](c1nc2c(F)c(C[C@@H]3CCNC3=O)ccc2[nH]1)C1CCC(F)(F)CC1` [Compound 12]: > 1 µM.

With `CCn1nccc1C(=O)N[C@H](c1nc2c(F)c(CC3CCC(C(F)(F)F)NC3=O)ccc2[nH]1)C(C1CC1)C1CC1` (single isomer, unassigned) [Compound 48], the IC50 was > 1 µM.

With `CCn1nccc1C(=O)N[C@H](c1nc2cc(CC3CC(C(F)(F)F)NC3=O)cc(F)c2[nH]1)C(C1CC1)C1CC1` (some centres unmarked) [Compound 33], the IC50 lay within 0.1 to 1 µM.

`CCn1nccc1C(=O)N[C@H](c1nc2ccc(CC3CC(C)NC3=O)cc2[nH]1)C(C1CC1)C1CC1` (some centres unmarked) [Compound 72]: the half-inhibitory concentration (IC50) lay in the range of 0.1 to 1 µM. The same measure for `CCn1nccc1C(=O)N[C@H](c1nc2nc(C[C@H]3CCNC3=O)ccc2[nH]1)C1CCC(F)(F)CC1` [Compound 10]: > 1 µM.

For the compound `CCn1nccc1C(=O)N[C@H](c1nc2cc(CC3CCC(C(F)(F)F)NC3=O)cc(F)c2[nH]1)C(C1CC1)C1CC1` (some centres unmarked) [Compound 56], the concentration for half-maximal inhibition (IC50) was 0.1 to 1 µM.

As to `CCn1nccc1C(=O)N[C@H](c1nc2cc(C[C@H]3C[C@@H](C(F)(F)F)NC3=O)ccc2[nH]1)C(C1CC1)C1CC1` (single isomer, unassigned) [Compound 3], the half-maximal inhibitory concentration (IC50) is < 0.1 µM.

On to `CCn1nccc1C(=O)N[C@H](c1nc2ccc(CC3C(=O)NC4CC43)cc2[nH]1)C(C1CC1)C1CC1` (some centres unmarked) [Compound 76], for which the half-inhibitory concentration (IC50) was 0.1 to 1 µM.

With `CCn1nccc1C(=O)N[C@H](c1nc2c(F)c(CC3CCC(C(F)(F)F)NC3=O)ccc2[nH]1)C(C1CC1)C1CC1` (single isomer, unassigned) [Compound 50], the IC50 was < 0.1 µM.

As for `CCn1nccc1C(=O)N[C@H](c1nc2cc(C[C@@H]3C[C@H](C(F)(F)F)NC3=O)ccc2[nH]1)C(C1CC1)C1CC1` (single isomer, unassigned) [Compound 5], the IC50 was > 1 µM. As for `CC(C)n1nccc1C(=O)N[C@H](c1nc2ccc(C[C@H]3CCNC3=O)cc2[nH]1)C(C1CC1)C1CC1` [Compound 58], the figure is 0.1 to 1 µM; as for `CCn1nccc1C(=O)N[C@H](c1nc2ccc(C[C@H]3CCCNC3=O)cc2[nH]1)C1CCC(F)(F)CC1` [Compound 86], > 1 µM; as for `CCn1nccc1C(=O)N[C@H](c1nc2cc(C(C)C3CCNC3=O)ccc2[nH]1)C(C1CC1)C1CC1` (some centres unmarked) [Compound 21], 0.1 to 1 µM. Turning to `CCn1nccc1C(=O)N[C@H](c1nc2ccc(C[C@H]3CCCNC3=O)cc2[nH]1)C(C1CC1)C1CC1` [Compound 35], the IC50 is 0.1 to 1 µM. The same measure for `CCc1nonc1C(=O)N[C@H](c1nc2ccc(C[C@H]3CCNC3=O)cc2[nH]1)C1CCC(F)(F)CC1` [Compound 25]: 0.1 to 1 µM.

Usually IC50 stands for the point on the concentration scale where inhibition reaches its midpoint.
